Source: patent US20150352177A1, “Method Of Treating An Ocular Disease And Compositions Effective For Treating An Ocular Disease” (Howard University, priority 2012, published 2015)

These compounds were tested on severe endophthalmitis (assay: Combination therapy treatment of a subject with severe endophthalmitis (single case)). Conditions: topical Ceftazidime, Vancomycin and Prednisolone eye drops every two hours, without efflux transporter inhibitor, over two days, vision dropped to no light perception.
Assay type: in vivo, human
Experimental: A uniocular subject was diagnosed with severe endophthalmitis in their only functioning eye. […] The subject was treated with an aggressive treatment regimen of topical antibiotics Ceftazidime eye drops, Vancomycin eye drops and steroid Prednisolone eye drops every two hours.
Cyclosporin A (sold as […]® from Allergan, Inc.) was added to the treatment regimen and was administered prior to administering the antibiotic and steroid eye drops.
The Ceftriaxone was added to the regimen to increase the aggressiveness of the therapy with the goal of preventing or eliminating any traces of infection in the retina, which can result in irreversible blindness.

| Structure (SMILES) | improvement under initial treatment regimen |
| --- | --- |
| C[C@]12C=CC(=O)C=C1CC[C@@H]1[C@@H]2[C@@H](O)C[C@@]2(C)[C@H]1CC[C@]2(O)C(=O)CO [Prednisolone] | no improvement |
| CC(C)(O/N=C(\C(=O)N[C@@H]1C(=O)N2C(C(=O)[O-])=C(C[n+]3ccccc3)CS[C@H]12)c1csc(N)n1)C(=O)O [Ceftazidime] | no improvement |
| CN[C@H](CC(C)C)C(=O)N[C@H]1C(=O)N[C@@H](CC(N)=O)C(=O)N[C@H]2C(=O)N[C@H]3C(=O)N[C@H](C(=O)N[C@H](C(=O)O)c4cc(O)cc(O)c4-c4cc3ccc4O)[C@H](O)c3ccc(c(Cl)c3)Oc3cc2cc(c3O[C@@H]2O[C@H](CO)[C@@H](O)[C@H](O)[C@H]2O[C@H]2C[C@](C)(N)[C@H](O)[C@H](C)O2)Oc2ccc(cc2Cl)[C@H]1O [Vancomycin] | no improvement |
